# Read-outs that look alike come from different tables or passages of the source.
# Assays:
# [1] = system: M. smegmatis "non-culturable" cells; type: cell-based, Mycobacterium smegmatis; conditions: MPN assay
# Rpf Sm [2] = molecular target: T1, Rpf Sm (Micrococcus luteus, UniProt O86308); conditions: inhibitor 2 and 4 µg/ml, Rpf Sm 40 µg/ml
# T1 construct: His-tag (inferred from the pET19b vector and the Ni2+-chelation purification); made in house; host or cells: E. coli HSM174 (DE3)
# ΔDUFRpf B [3] = molecular target: T2, ΔDUFRpf B (Mycobacterium tuberculosis, UniProt P9WG29); type: binding, M. tuberculosis
# Micrococcus luteus = test: microbe, parasite or virus in culture; type: cell-based; conditions: Micrococcus luteus; lowest concentration which suppresses growth; determined during 24 hours; NI = no inhibition was observed
# M. smegmatis = type: cell-based, Mycobacterium smegmatis; conditions: at 0.1–1 µg/ml (not shown)
# Rpf Sm [4] = molecular target: T1, Rpf Sm; test: Muralytic activity of Rpf, 4-MUF-3-NAG hydrolysis; type: biochemical, M. luteus
# Protocol: The truncated form of M.luteus Rpf (RpfSm) was used for the analysis. The truncated protein contained conserved Rpf domain and additional 20 amino acids of the gene product, corresponding to the following amino acid sequence:
# To determine a muralytic activity of the recombinant Rpfs', 4-methylumbelliferyl-β-D-N, N′, N″-triacetylchitotrioside (4-MUF-3-NAG) (“Sigma”, Germany) was applied. […] A number of experiments were performed in the presence of NPT compounds, in concentration range of 0.5–10 µg/ml. After 3 hours of incubation at 37°C, 2 µl of 10 M NaOH was added and the samples were frozen and kept at −20°C. […] The intensity of fluorescence was detected by the RF-5301PC fluorimeter (“SHIMADZU”, Japan) using excitation wavelength of 364 nm and a read-out of 448 nm.
# Trypsin(3.4.21.4) = test: Trypsin activity (fluorimetric); type: biochemical; conditions: control 10
# Protocol: (§1) Alcoholdehydrohenase(1.1.1.1) activity: ADH was dissolved in 50 mM phospahe buffer pH 7 at the concentration 10 µg/ml. The rate of the reaction was judged by transformation of NAD^+ (1 mM) into NADH+H^+. As the substrate ethanol was used. Activity was measured by OD340. Laccase(1.10.3.2) activity: Laccase was dissolved in the 50 mM citrate-phosphate buffer, pH4.5 at concentration 9 µg/ml. Pyrocatechin was used at concentration 11 µg/ml. Activity was measured by OD410. Trypsin(3.4.21.4) activity: The enzyme at concentration 8.0 µg/ml was dissolved in 50 mM Tris-HCl buffer pH 8.0. Concentration of the substrate (N-CBz-Gly-Gly-Arg-β-naphthylamide - Sigma-Aldrich)- 11 µg/ml. Registration of the kinetic curves was made fluorimetrically - excitation wavelength - 330 nm; emission - 420 nm. (0.02 MB DOC) Click here for additional data file.
# [5] = system: Alcoholdehydrohenase(1.1.1.1); test: Alcoholdehydrogenase activity (NAD+ to NADH, OD340); type: biochemical; conditions: control 1.7
# Protocol: as §1
# ΔDUFRpf B [6] = molecular target: T2, ΔDUFRpf B; design: species or system M. tuberculosis; conditions: inhibitor 2 and 4 µg/ml, ΔDUFRpf B 60 µg/ml
# Laccase(1.10.3.2) = test: Laccase activity (pyrocatechin, OD410); type: biochemical; conditions: control 3.6
# Protocol: as §1
# [7] = system: M. tuberculosis "non-culturable" cells; type: cell-based, Mycobacterium tuberculosis; conditions: inhibitor 10 µg/ml
# T2 sequence (P9WG29 whole entry, looked up, stated change not applied): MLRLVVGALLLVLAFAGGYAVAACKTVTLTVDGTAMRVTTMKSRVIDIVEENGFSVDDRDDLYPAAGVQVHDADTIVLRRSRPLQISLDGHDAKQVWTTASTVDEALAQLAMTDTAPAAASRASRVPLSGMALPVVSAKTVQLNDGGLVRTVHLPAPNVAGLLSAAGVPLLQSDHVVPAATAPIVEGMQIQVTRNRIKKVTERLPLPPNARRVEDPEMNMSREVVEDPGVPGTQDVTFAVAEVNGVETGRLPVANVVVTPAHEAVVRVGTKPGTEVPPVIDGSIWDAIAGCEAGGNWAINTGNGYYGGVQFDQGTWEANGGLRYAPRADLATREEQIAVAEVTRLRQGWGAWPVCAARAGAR
# T1 sequence (O86308 42-134): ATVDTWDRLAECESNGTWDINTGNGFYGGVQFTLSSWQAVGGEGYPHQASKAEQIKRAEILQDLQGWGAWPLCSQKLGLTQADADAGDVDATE
structure (smiles),measurement,setting,value
"N#CSc1ccc(C(=O)c2ccccc2)cc1[N+](=O)[O-] [VII, 4-Benzoyl-2-nitrophenyl thiocyanate]",concentrations active in suppressing resuscitation of M. smegmatis,[1],0.1 to 1 µg/mL
same,changes in the CD spectra of Rpf Sm,Rpf Sm [2],did not produce significant changes
same,interaction with the buried tryptophanes of ΔDUFRpfB,ΔDUFRpf B [3]; fluorescence studies,interacted with at least two exposed and one buried tryptophan
same,accessible fraction of ΔDUFRpfB tryptophanes (fa),"ΔDUFRpf B [3]; modified Stern-Volmer equation, excitation 280 nm, emission 340 nm",~65%
same,MIC,Micrococcus luteus,1 to 5 µg/mL
same,growth of active cells of M. smegmatis,M. smegmatis,did not inhibit growth
same,IC50,Rpf Sm [4],6.68 µM
same,type of inhibition of Rpf-Sm muralytic activity (Lineweaver-Burk plot),"Rpf Sm [4]; substrate 3 to 24 µM, inhibitor 0.5 to 10 µg/ml",non-competitive inhibition
same,"τ1/2, time needed to achieve a 50% level of substrate conversion, Trypsin",Trypsin(3.4.21.4); compound 4 µg/ml,10 s
same,"τ1/2, time needed to achieve a 50% level of substrate conversion, Trypsin",Trypsin(3.4.21.4); compound 10 µg/ml,10 s
same,"τ1/2, time needed to achieve a 50% level of substrate conversion, Alchoholdehydrohenase",[5]; compound 4 µg/ml,1.75 s
same,"τ1/2, time needed to achieve a 50% level of substrate conversion, Alchoholdehydrohenase",[5]; compound 10 µg/ml,1.7 s
same,melting point,,104 to 106 °C
same,changes in the CD spectra of ΔDUFRpf B,ΔDUFRpf B [6],did not produce significant changes
same,"τ1/2, time needed to achieve a 50% level of substrate conversion, Laccase",Laccase(1.10.3.2); compound 4 µg/ml,3.6 s
same,"τ1/2, time needed to achieve a 50% level of substrate conversion, Laccase",Laccase(1.10.3.2); compound 10 µg/ml,3.5 s
same,"MPN, logarithmic transformation of cell concentration (cells/ml)",[7]; time 0 days,3.48
same,"MPN, logarithmic transformation of cell concentration (cells/ml)",[7]; time 14 days,3.48
same,"MPN, logarithmic transformation of cell concentration (cells/ml)",[7]; time 19 days,3.48
same,"MPN, logarithmic transformation of cell concentration (cells/ml)",[7]; time 21 days,3.86
same,"MPN, logarithmic transformation of cell concentration (cells/ml)",[7]; time 23 days,5.38
same,"MPN, logarithmic transformation of cell concentration (cells/ml)",[7]; time 27 days,6.18
same,"MPN, logarithmic transformation of cell concentration (cells/ml)",[7]; time 30 days,6.18
same,"MPN, logarithmic transformation of cell concentration (cells/ml)",[7]; time 33 days,6.18
same,"MPN, logarithmic transformation of cell concentration (cells/ml)",[7]; time 36 days,6.18
same,"MPN, logarithmic transformation of cell concentration (cells/ml)",[7]; time 40 days,6.18

# From PMC2790607, “Finding of the Low Molecular Weight Inhibitors of Resuscitation Promoting Factor Enzymatic and Resuscitation Activity” (PLoS ONE, 2009)
